The record followed here is EP0386243A1, “PLATINUM (II) COMPLEXES” (SAGAMI CHEMICAL RESEARCH CENTER, priority 1987, dated 1989).

pIC50: −log10 of the molar value. Read-outs that look alike come from different tables or passages of the source.

Series [1] can be described thus: Toxicity: S-GPT (serum transaminase) and BUN (blood urea nitrogen) levels. The format is in vivo.
Series [2] relates to Mouse lymphatic leukemia tumor cells, P-388. As to the kind of experiment: Growth suppressing effect on mouse lymphatic leukemia tumor cells P-388 (48 h culture, Coulter counter cell count). The format is cell-based. The note with it: P-388 cells 5 x 10^4 cells/ml, 37°C, no more than 0.5% DMSO; for pIC50: read-out: IC50. How it is done: The number of suspended cells was counted with a Coulter counter and ICso values were determined from dose response curves that were constructed for the respective compounds on the basis of percent growth inhibition as compared to the absence of the compounds.

In the case of “bis{β-methyl(p-isobutylphenylpyruvato)}(trans-Q-1,2-diaminocyclohexane)platinum (II) [Compound No. 14]”, the “S-GPT (serum transaminase)” value in series [1] (indicator of hepatotoxicity) is “did not cause any appreciable increase”. In series [1] (indicator of nephrotoxicity), the “BUN (blood urea nitrogen)” value is “did not cause any appreciable increase”.
In general, pIC50 refers to −log10 of the IC50, conventionally taken in molar units. Take “bis(β-methylphenylpyruvato)ethylenediamine platinum (II) [Compound No. 17]”: the pIC50 in series [2] is less than 5.00.
A word on the IC50: it is the concentration that gives 50% inhibition. Read a low IC50 as higher potency. Take `CC(C(=O)C(=O)[O-])c1ccc(C(=O)[O-])cc1.CC(C(=O)C(=O)[O-])c1ccc(C(=O)[O-])cc1.C[NH2+]C.C[NH2+]C.NC1CCCCC1N.[Pt+2]` (stereo not drawn) [Compound No. 33, bis{β-methyl(p-carboxyphenylpyruvato)}(trans-d,ℓ-1,2-diaminocyclohexane)platinum (II) bis(dimethylammonium) salt]: in series [2], the IC50 was 0.024 µg/mL and the pIC50 was 7.55.
